In US4997817A, “Phyllanthostatin A” (Arizona Board of Reagents, priority 1990, dated 1991):
≈ marks a conversion by molar mass, not a printed value.

Columns and labels:
[1] = Stability in solution at room temperature (nmr observation; MeOH solutions stored two days); assay type: physicochemical
[2] = Thermal stability in DMSO-d6 (variable temperature 1H nmr); assay type: physicochemical; conditions: DMSO-d6, higher temperatures (FIGS. 2d,e); signals attributable to justicidin B appeared
Procedure: Signals of the remaining carbons appeared as sharp single lines. These observations are explained by hindered rotation around the C-1/C-1' axis, resulting in conformational isomers. In order to provide evidence for or disprove this hypotheses, the ^1 H nmr spectra of the glycoside (shown above) were recorded in DMSO-d6 at different temperatures. Table 1 summarizes the chemical shifts observed at 25, 65, 105, 135, and 145° C. […] Room temperature (FIG. 2a) led to a complex coupling pattern that became more easily interpretable when the spectrum was recorded at 65° C. (FIG. 2b). Signals due to H-2', H-5' and H-6' broadened and disappeared when the temperature was raised (FIG. 2c). […] Other protons (not shown in FIG. 2) also appeared as single resonances at higher temperatures.

[3] = system: P388 murine lymphocytic leukemia; experiment: Cell growth inhibition against P388 murine lymphocytic leukemia (in vitro PS system), NCI standard protocol; assay type: cell-based; conditions: Mus musculus, read-out: ED50 (P388 murine lymphocytic leukemia, in vitro PS system)
Text: Hplc-uv/vis and cell growth inhibition against the P388 murine lymphocytic leukemia (in vitro PS system) were used to guide the isolation of the lignan.

COc1cc2cc(COC(C)=O)c(C(=O)O[C@@H]3O[C@H](CO)[C@@H](O)[C@H](O)[C@H]3O)c(-c3ccc4c(c3)OCO4)c2cc1OC [Phyllanthostatin A]
justicidin B detected in stored solution ([1]; MeOH solutions, room temperature, two days): Justicidin B was also detected in MeOH solutions of glycoside stored at room temperature for two days
stability in solution ([1]; in solution): unstable in solution
decomposition at higher temperatures [2]: gradually decomposed
IC50 [3]: 4 µg/mL (≈ 6.82 µM)
